Laboratory results taken from patent US7625713B2, “Process for identifying a ligand that binds to the NEP binding site for the SMR1 pentapeptide” (Institut Pasteur, priority 2000, dated 2009).
“Also recorded” adds a separate entry of the source. Where a SMILES comes first, the peptide text is derived from it.

Target: T1, NEP (Rattus norvegicus, UniProt P07861)
T1 construct: incubations of membrane and fresh tissue slice preparations from nervous tissues; from tissue; host or cells: dorsal spinal cord of male Wistar rats (fresh slices or 100 000 x g membrane fraction)
T1 sequence (P07861 1-750): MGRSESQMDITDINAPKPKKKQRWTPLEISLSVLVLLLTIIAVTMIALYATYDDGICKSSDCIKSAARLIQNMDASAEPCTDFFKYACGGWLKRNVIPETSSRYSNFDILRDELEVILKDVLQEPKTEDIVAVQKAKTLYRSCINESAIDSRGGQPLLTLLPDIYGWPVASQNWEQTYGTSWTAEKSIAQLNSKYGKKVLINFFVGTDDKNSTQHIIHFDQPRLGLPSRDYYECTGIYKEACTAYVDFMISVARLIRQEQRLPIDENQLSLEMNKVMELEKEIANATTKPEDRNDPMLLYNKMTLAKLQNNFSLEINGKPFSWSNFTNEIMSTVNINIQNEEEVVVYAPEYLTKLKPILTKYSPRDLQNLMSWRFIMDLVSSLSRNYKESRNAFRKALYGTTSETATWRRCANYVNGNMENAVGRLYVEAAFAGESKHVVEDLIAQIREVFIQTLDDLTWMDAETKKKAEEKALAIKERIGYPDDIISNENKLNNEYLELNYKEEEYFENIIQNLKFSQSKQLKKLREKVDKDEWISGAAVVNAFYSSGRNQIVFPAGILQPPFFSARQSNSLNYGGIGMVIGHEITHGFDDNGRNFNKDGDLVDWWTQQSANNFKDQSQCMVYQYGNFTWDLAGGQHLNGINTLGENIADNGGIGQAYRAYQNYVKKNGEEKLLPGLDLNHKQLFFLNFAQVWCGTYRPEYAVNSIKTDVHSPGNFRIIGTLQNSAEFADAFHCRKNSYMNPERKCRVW
Assay: 3H-Substance P hydrolysis by rat spinal cord membrane preparations
Assay type: biochemical
Procedure: FIG. 1-A: Influence of spinal cord membrane protein concentration on Substance P hydrolysis (25 nM) in the presence or absence of the synthetic NEP inhibitor, Phosphoramidon, 10 μM. Each point represents the percent of 3H-substance P hydrolyzed by spinal cord membrane incubated 15 min. at 30° C. in a 250 μl final volume of Tris/HCl buffer. […] Each point represents the percent of 3H-substance P hydrolyzed by 250 μg membrane proteins incubated at 25° C. in a 250 μl final volume of Tris/HCl buffer. FIG. 3-B: Concentration-dependent inhibition by […] NO: 2) of 3H-Substance P (12.5 nM) catabolism by rat spinal cord membrane preparations. Comparison with-a NEP inhibitor, Phosphoramidon and, -CPB and DPPIV inhibitors, […] inhibitor. Comparison between the inhibitory activity exerted by […] NO: 2) peptide alone or in combination with CPB and DPPIV inhibitors. […] The metabolism rate of the NEP-sensitive peptides was measured using the both NEP substrates involved in the signaling of the nociceptive response: the neuropeptides Met-enkephalin and Substance P. […] The temperature and the time of the incubation as well as the concentration of substrate and of membrane enzyme are defined according to the results such as the NEP hydrolysis activity will be measured under conditions of initial velocity. […] The radioactivity of eluted and isolated compounds is determined by liquid scintillation spectrometry.

- NEP inhibiting activity compared with phosphoramidon (peptide combined with the inhibitors of CPB and DPPIV): greater than that of phosphoramidon
SMILES: N=C(N)NCCC[C@H](NC(=O)[C@@H]1CCCN1C(=O)[C@H](CC(N)=O)NC(=O)[C@H](Cc1c[nH]cn1)NC(=O)[C@@H](N)CCC(N)=O)C(=O)O [sialorphin, Gln-His-Asn-Pro-Arg] (H-QHNPR-OH; N-terminus and C-terminus assumed)
- inhibitory potency / protection of Substance P compared with reference NEP inhibitors (peptide alone, listed as SMR1-QHNPR): equivalent t0 that obtained with Phosphoramidon; also recorded: equivalent to that of two well-known NEP-specific inhibitors, Thiorphan and Phosphoramidon
